Laboratory results as given in patent US20250052744A1, “Dyes and Uses Thereof” (The University of Liverpool, priority 2021, published 2025).

Legend:
Test in all cases: Qualitative dye staining on agarose pads (EVOS M7000)
Assay type in all cases: cell-based
Parameters in all cases: key to Relative fluorescent intensity: Very high: If the cells looked twice as big in the fluorescent channel, it was marked as having “very high” relative fluorescent intensity; High: if the cells looked bigger in the fluorescent channel, it was marked as having “high” relative fluorescent intensity; Medium: If the cells looked almost the same size in the fluorescent channel and the bright field, it was marked as having “medium” relative fluorescent intensity; Low: If the cells looked smaller in the fluorescent channel as compared to the brightfield but still the whole cell was visible, it was marked as having “low” relative fluorescent intensity; Negligible: If only a few traces of a cell was visible in the fluorescent channel, it was marked as having “negligible” relative fluorescent intensity
Conditions in all cases: DiSC3(5) 3 μM, SYBR Green I 10×, SYTO 13 3 μM, FM4-64 15 μM
Enterococcus faecalis = system: Enterococcus faecalis
Proteus vulgaris = system: Proteus vulgaris
Enterococcus faecium = system: Enterococcus faecium
[1] = Table 7 commercial strain Enterococcus faecalis NCTCT 12697
[2] = Table 8 sample Enterococcus faecalis (001)
[3] = Table 8 sample Enterococcus faecalis (002)
[4] = Table 8 sample Enterococcus faecalis (003)
[5] = Table 8 sample Proteus vulgaris (024)
[6] = Table 8 sample Proteus vulgaris (025)
[7] = Table 8 sample Proteus vulgaris (026)
[8] = Table 7 commercial strain Enterococcus faecium NCTC 7171
[9] = Table 7 commercial strain Enterococcus faecium NCTC 13923
[10] = Table 8 sample Enterococcus faecium (011)
[11] = Table 8 sample Enterococcus faecium (012)
[12] = Table 8 sample Enterococcus faecium (013)

Row | Structure (SMILES) | Percentage of cells stained (Enterococcus faecalis; [1]) | Relative fluorescent intensity (Enterococcus faecalis; [1]) | Percentage of cells stained (Enterococcus faecalis; [2]) | Relative fluorescent intensity (Enterococcus faecalis; [2]) | Percentage of cells stained (Enterococcus faecalis; [3]) | Relative fluorescent intensity (Enterococcus faecalis; [3]) | Percentage of cells stained (Enterococcus faecalis; [4]) | Relative fluorescent intensity (Enterococcus faecalis; [4]) | Percentage of cells stained (Proteus vulgaris; [5]) | Relative fluorescent intensity (Proteus vulgaris; [5]) | Percentage of cells stained (Proteus vulgaris; [6]) | Relative fluorescent intensity (Proteus vulgaris; [6]) | Percentage of cells stained (Proteus vulgaris; [7]) | Relative fluorescent intensity (Proteus vulgaris; [7]) | Percentage of cells stained (Enterococcus faecium; [8]) | Relative fluorescent intensity (Enterococcus faecium; [8]) | Percentage of cells stained (Enterococcus faecium; [9]) | Relative fluorescent intensity (Enterococcus faecium; [9]) | Percentage of cells stained (Enterococcus faecium; [10]) | Relative fluorescent intensity (Enterococcus faecium; [10]) | further results
1 | CCCN1C(=CC=CC=Cc2sc3ccccc3[n+]2CCC)Sc2ccccc21.[I-] [DiSC3(5), 3,3′-Dipropylthiadicarbocyanine Iodide] | Half | Low | Half | Low | Half | Low | Half | Low | Almost all | Low | Few | Medium | Almost all | Low | Almost all | Low | Almost all | Low | Almost all | Low | Percentage of cells stained (Enterococcus faecium; [11]): Almost all; Relative fluorescent intensity (Enterococcus faecium; [11]): Low; Percentage of cells stained (Enterococcus faecium; [12]): Half; Relative fluorescent intensity (Enterococcus faecium; [12]): Low
2 | CCN(CC)c1ccc(C=CC=CC=Cc2cc[n+](CCC[N+](CC)(CC)CC)cc2)cc1.[Br-].[Br-] [FM 4-64, N-(3-Triethylammoniumpropyl)-4-(6-(4-(Diethylamino) Phenyl) Hexatrienyl) Pyridinium Dibromide] | Almost all | Medium | Almost all | Medium | Almost all | Medium | Almost all | Medium | Few | Negligible | Few | Negligible | Few | Negligible | Half | Medium | Half | Medium | Half | Medium | Percentage of cells stained (Enterococcus faecium; [11]): Half; Relative fluorescent intensity (Enterococcus faecium; [11]): Medium; Percentage of cells stained (Enterococcus faecium; [12]): Almost all; Relative fluorescent intensity (Enterococcus faecium; [12]): Medium
3 | CCCN(CCCN(C)C)c1cc(/C=C2/Sc3ccccc3N2C)c2ccccc2[n+]1-c1ccccc1 [SYBR Green I, N′,N′-dimethyl-N-[4-[(E)-(3-methyl-1,3-benzothiazol-2-ylidene)methyl]-1-phenylquinolin-1-ium-2-yl]-N-propylpropane-1,3-diamine] | Almost all | Medium | Almost all | Medium | Almost all | Medium | Almost all | Medium | Half | Low | Half | Low | Almost all | Low | Almost all | High | Almost all | High | Almost all | High | Percentage of cells stained (Enterococcus faecium; [11]): Almost all; Relative fluorescent intensity (Enterococcus faecium; [11]): High; Percentage of cells stained (Enterococcus faecium; [12]): Almost all; Relative fluorescent intensity (Enterococcus faecium; [12]): High
